Measured values: patent US9592294B2, “Polyalkoxylated alcohols as excipients for pharmaceutical compositions” (Dow Global Technologies LLC, priority 2013, dated 2017)

What was measured:
[1] = phosphate buffer pH 7.0, terpene alcohol ethoxylates 20 wt. %, versus buffer alone; cited from earlier work
[2] = Turbidity of wet-milled reference drug suspensions without excipient; type: physicochemical; conditions: 26 mg/L Probucol, assuming linear relationship between undissolved drug and turbidity
Procedure: Moreover, wet-milled drug suspensions were analyzed as reference samples to determine the turbidity of the drugs in the absence of excipients. […] 78.6 g of yttrium-stabilized zirconia grinding beads (YTZ from Tosoh Corp., diameter: 0.5 mm) were provided in a 50 mL plastic bottle and 10.0 g deionized water and 0.54 g of the respective drug were added. In the case of Probucol, a dispersant, Daxad 19LS (from Hampshire Chem. Corp.), was added in an amount corresponding to 1 wt. % of the mass of Probucol to counteract coating of the milling beads by the drug. The resulting mixture was placed on a rotating ball mill for 24 h. Subsequently 11.06 g of deionized water were added, the suspension was shaken extensively and then separated from the milling beads. An aliquot of 0.20 g of this suspension was further diluted with 49.80 g of deionized water to yield a suspension having a nominal drug concentration of 0.01 wt. %, which was then analyzed for its turbidity using a Nepheloskan Ascent instrument from ThermoLabsystem. […] Table 5 summarizes the measured turbidity of the wet milled reference drug suspensions along with the average particle size of the suspended drug particles measured using a 90 Plus Particle Size Analyzer instrument from Brookhaven Instruments Corp. and literature values for the aqueous solubility of the drugs.

Compound	Increase of saturation drug concentration (factor) [1]	Turbidity calculated for a Probucol suspension [2] [RNU]
Nc1ccc(S(=O)(=O)Nc2nccs2)cc1 [sulfathiazole]	about 14	–
CC(C)(Sc1cc(C(C)(C)C)c(O)c(C(C)(C)C)c1)Sc1cc(C(C)(C)C)c(O)c(C(C)(C)C)c1 [Probucol]	–	~24
